Assay results from ChEMBL document CHEMBL1201862, “PubChem BioAssay data set” (2004).
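These data come from cells grown in 96-well plates and exposed to compound for 48 hours at five concentrations. GI50 is the concentration that inhibits growth by half.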 Activity calls are given as the source filed them. Rule as the data show it: active = GI50 up to about 1.1 µM and inactive = higher.

How the values were obtained:
Assay in all cases: NCI tumour cell line growth inhibition, 48 h
A498 = test system: A498
CAKI-1 = test system: CAKI-1
COLO 205 = test system: COLO 205
DU-145 = test system: DU-145
HCC 2998 = test system: HCC 2998
MOLT-4 = test system: MOLT-4
NCI/ADR-RES = test system: NCI/ADR-RES
RPMI-8226 = test system: RPMI-8226
SF-295 = test system: SF-295
SK-MEL-28 = test system: SK-MEL-28
SK-MEL-5 = test system: SK-MEL-5
SK-OV-3 = test system: SK-OV-3
SW-620 = test system: SW-620
T47D = test system: T47D
TK-10 = test system: TK-10
HL-60 = test system: HL-60
Malme-3M = test system: Malme-3M
NCI-H226 = test system: NCI-H226
NCI-H23 = test system: NCI-H23
BT-549 = test system: BT-549

| SMILES | GI50 (A498) | GI50 (CAKI-1) | GI50 (COLO 205) | GI50 (DU-145) | GI50 (HCC 2998) | GI50 (MOLT-4) | GI50 (NCI/ADR-RES) | GI50 (RPMI-8226) | GI50 (SF-295) | GI50 (SK-MEL-28) | GI50 (SK-MEL-5) | GI50 (SK-OV-3) | GI50 (SW-620) | GI50 (T47D) | GI50 (TK-10) | GI50 (HL-60) | GI50 (Malme-3M) | GI50 (NCI-H226) | GI50 (NCI-H23) | GI50 (BT-549) |
| --- | --- | --- | --- | --- | --- | --- | --- | --- | --- | --- | --- | --- | --- | --- | --- | --- | --- | --- | --- | --- |
| O=[N+]([O-])/C=C/COCc1cc2c(cc1Br)OCO2 | 27.6 µM (inactive) | 20.6 µM (inactive) | 23.1 µM (inactive) | 18.9 µM (inactive) | 16.7 µM (inactive) | 48.3 µM (inactive) | 21.1 µM (inactive) | 39.5 µM (inactive) | 36.8 µM (inactive) | 11.6 µM (inactive) | 20.2 µM (inactive) | 43.1 µM (inactive) | 16 µM (inactive) | 16.7 µM (inactive) | 17.4 µM (inactive) |  |  |  |  |  |
| C=CCC(C)C12CCNC(Cc3ccc(O)cc31)C2C (stereo not given) | 43.6 µM (inactive) |  | > 100 µM (inactive) | > 100 µM (inactive) | 51.1 µM (inactive) | 84.5 µM (inactive) | > 100 µM (inactive) | > 100 µM (inactive) | > 100 µM (inactive) | > 100 µM (inactive) | > 100 µM (inactive) | > 100 µM (inactive) | > 100 µM (inactive) | > 100 µM (inactive) | > 100 µM (inactive) | > 10 µM (inactive) | > 100 µM (inactive) | > 100 µM (inactive) | > 100 µM (inactive) |  |
| COc1ccc(NC(=O)/C(=C/c2ccccc2)C(C)=O)cc1 | 21.1 µM (inactive) | 15.4 µM (inactive) | 19.1 µM (inactive) |  | 18.9 µM (inactive) | 11.4 µM (inactive) |  | 5.24 µM (inactive) | 14.2 µM (inactive) | 12.9 µM (inactive) | 13.9 µM (inactive) | 40.2 µM (inactive) | 16.2 µM (inactive) |  | 20.3 µM (inactive) | 3.39 µM (inactive) | 16.5 µM (inactive) | 19.2 µM (inactive) | > 10 µM (inactive) |  |
| COc1cc2c(cc1OC)CC(=O)c1cc(OC)c(OC)cc1/C=C\2 | > 12.5 µM (inactive) | > 12.5 µM (inactive) | 11.1 µM (inactive) | > 12.5 µM (inactive) |  | 9.93 µM (inactive) | > 12.5 µM (inactive) | > 12.5 µM (inactive) | 7.16 µM (inactive) | > 12.5 µM (inactive) | 7.74 µM (inactive) | > 12.5 µM (inactive) | 6.37 µM (inactive) |  | > 12.5 µM (inactive) | 2.24 µM (inactive) | 2.93 µM (inactive) | > 12.5 µM (inactive) | > 12.5 µM (inactive) |  |
| N#CC1=C(N)OC(c2cccc([N+](=O)[O-])c2)C1(C#N)C#N (stereo not given) | 19.7 µM (inactive) | 2.98 µM (inactive) | 17 µM (inactive) | 17.3 µM (inactive) | 20.9 µM (inactive) |  | 34.3 µM (inactive) | 18.3 µM (inactive) | 26.5 µM (inactive) |  | 18 µM (inactive) | 70.3 µM (inactive) | > 10 µM (inactive) | 17.4 µM (inactive) | 19.1 µM (inactive) | 11.9 µM (inactive) | 18.3 µM (inactive) | 30.8 µM (inactive) | 21.2 µM (inactive) |  |
| Cc1cccc(-n2c(N)c(-c3nc4ccccc4[nH]3)sc2=S)c1 | 89.3 µM (inactive) | 47.4 µM (inactive) | 23.8 µM (inactive) |  | > 10 µM (inactive) | 20.6 µM (inactive) |  | 20.7 µM (inactive) | 28.1 µM (inactive) | 37 µM (inactive) | 20.9 µM (inactive) | 47.9 µM (inactive) | 31.4 µM (inactive) |  | 29.5 µM (inactive) | 26.5 µM (inactive) | 28.8 µM (inactive) | 32.7 µM (inactive) | 49.8 µM (inactive) |  |
| O=C1/C(=C/c2ccco2)N=C2Sc3c([nH]cnc3=O)N12 | > 100 µM (inactive) | > 100 µM (inactive) | > 100 µM (inactive) | > 100 µM (inactive) |  | > 100 µM (inactive) | > 100 µM (inactive) | > 100 µM (inactive) | > 100 µM (inactive) | > 100 µM (inactive) | > 100 µM (inactive) | > 100 µM (inactive) | > 100 µM (inactive) | > 100 µM (inactive) | > 100 µM (inactive) | > 100 µM (inactive) | > 100 µM (inactive) | > 100 µM (inactive) | > 100 µM (inactive) |  |
| CC(O)c1c2c(cc3c1CC1(C3)Cc3cc4c(c(C(C)O)c3C1)CCC4)CCC2 (stereo not given) | 14.9 µM (inactive) |  | 13.4 µM (inactive) |  | 17.3 µM (inactive) | 4.13 µM (inactive) | 19.1 µM (inactive) | 12.6 µM (inactive) | 21 µM (inactive) |  | 13 µM (inactive) | 23.2 µM (inactive) |  | 11.9 µM (inactive) | 27.7 µM (inactive) | 4.76 µM (inactive) | 15.9 µM (inactive) | 15.6 µM (inactive) | 15.5 µM (inactive) |  |
| COC(=O)c1c(O)ccc2c1c1c(n2CCc2ccccc2)C(=O)c2ccccc2C1 | 19.2 µM (inactive) | 17.2 µM (inactive) | 14.6 µM (inactive) | 31.8 µM (inactive) |  | 38.3 µM (inactive) | 19.7 µM (inactive) | 11.7 µM (inactive) |  | 19.5 µM (inactive) | 17.6 µM (inactive) | 22.5 µM (inactive) | 30.1 µM (inactive) |  | 34.3 µM (inactive) | 28.9 µM (inactive) | 32.3 µM (inactive) | 16.3 µM (inactive) | 20.7 µM (inactive) | 24.4 µM (inactive) |
| O=[N+]([O-])c1ccc(C2=Nn3c(nnc3-c3ccccc3)SC2)o1 | > 100 µM (inactive) | 19.9 µM (inactive) | 21.4 µM (inactive) |  | 18.9 µM (inactive) | 24.3 µM (inactive) |  | 5.81 µM (inactive) | 17.4 µM (inactive) | 29.2 µM (inactive) | 17.7 µM (inactive) | > 100 µM (inactive) | 18 µM (inactive) |  | 19.6 µM (inactive) | 15.3 µM (inactive) | 24.1 µM (inactive) | 58.6 µM (inactive) | 20.6 µM (inactive) |  |
| COc1ccc(-c2c3ccccc3c(-c3ccc(OC)cc3)c3ccccc23)cc1 | > 100 µM (inactive) | > 100 µM (inactive) | > 100 µM (inactive) |  | > 100 µM (inactive) | > 100 µM (inactive) |  | > 100 µM (inactive) | > 100 µM (inactive) | > 100 µM (inactive) | > 100 µM (inactive) | > 100 µM (inactive) | > 100 µM (inactive) |  | > 100 µM (inactive) | > 100 µM (inactive) | > 100 µM (inactive) | > 100 µM (inactive) | > 100 µM (inactive) |  |
| CC(=O)/N=C1/N(/C=C2\C(=O)Oc3ccccc3C2=O)C(=O)/C(=C/c2ccccc2Cl)N1C | 0.564 µM (active) | > 100 µM (inactive) | > 100 µM (inactive) | > 100 µM (inactive) | > 100 µM (inactive) | > 100 µM (inactive) | 84.9 µM (inactive) | > 100 µM (inactive) | > 100 µM (inactive) | > 100 µM (inactive) | 48 µM (inactive) | > 100 µM (inactive) | > 100 µM (inactive) | > 100 µM (inactive) |  | > 100 µM (inactive) | > 100 µM (inactive) | > 100 µM (inactive) | > 100 µM (inactive) |  |
| CN(C)/C=N\c1c(Br)cc(Br)c2nonc12 | > 100 µM (inactive) | > 100 µM (inactive) | > 100 µM (inactive) | > 100 µM (inactive) | > 100 µM (inactive) | > 100 µM (inactive) | > 100 µM (inactive) | > 100 µM (inactive) | > 100 µM (inactive) | > 100 µM (inactive) | > 100 µM (inactive) | > 100 µM (inactive) | > 100 µM (inactive) | > 100 µM (inactive) | > 100 µM (inactive) | > 100 µM (inactive) | > 100 µM (inactive) | > 100 µM (inactive) | > 100 µM (inactive) |  |
| CC1OC(n2cc(F)c(=O)[nH]c2=O)C=CC1O (stereo not given) | > 100 µM (inactive) | > 100 µM (inactive) | > 100 µM (inactive) |  | > 100 µM (inactive) | > 100 µM (inactive) |  | > 92.3 µM (inactive) | > 100 µM (inactive) | > 100 µM (inactive) | > 100 µM (inactive) | > 100 µM (inactive) | > 46 µM (inactive) |  | > 100 µM (inactive) | 37.2 µM (inactive) | > 100 µM (inactive) | > 100 µM (inactive) | > 100 µM (inactive) |  |
| C1CCC(CC2CCC(NC3=NCCO3)CC2)CC1 (stereo not given) | 26 µM (inactive) | 24.5 µM (inactive) | 14.2 µM (inactive) | 30 µM (inactive) | 20.7 µM (inactive) | 21.6 µM (inactive) | 19.4 µM (inactive) | 26.1 µM (inactive) | 19.7 µM (inactive) | 18.1 µM (inactive) | 19.5 µM (inactive) | 20.9 µM (inactive) | 21.3 µM (inactive) | 24.4 µM (inactive) | 15.3 µM (inactive) | 17.9 µM (inactive) | 15.8 µM (inactive) | 18.8 µM (inactive) | 17.9 µM (inactive) |  |
| CNC(=O)OCc1nc([S+](C)[O-])n(C)c1COC(=O)NC (stereo not given) | 38.7 µM (inactive) | > 58.7 µM (inactive) | > 41.8 µM (inactive) |  | > 100 µM (inactive) | > 100 µM (inactive) | > 100 µM (inactive) | > 100 µM (inactive) | > 100 µM (inactive) | > 100 µM (inactive) | > 46.5 µM (inactive) | > 44.1 µM (inactive) | > 46.5 µM (inactive) |  | > 100 µM (inactive) | > 100 µM (inactive) | > 100 µM (inactive) | > 100 µM (inactive) | > 100 µM (inactive) |  |
